In assay [1] the target is T1, PBP3 (Escherichia coli, UniProt P0AD68).
T1 construct: gene ftsI
T1 sequence (P0AD68 44-588): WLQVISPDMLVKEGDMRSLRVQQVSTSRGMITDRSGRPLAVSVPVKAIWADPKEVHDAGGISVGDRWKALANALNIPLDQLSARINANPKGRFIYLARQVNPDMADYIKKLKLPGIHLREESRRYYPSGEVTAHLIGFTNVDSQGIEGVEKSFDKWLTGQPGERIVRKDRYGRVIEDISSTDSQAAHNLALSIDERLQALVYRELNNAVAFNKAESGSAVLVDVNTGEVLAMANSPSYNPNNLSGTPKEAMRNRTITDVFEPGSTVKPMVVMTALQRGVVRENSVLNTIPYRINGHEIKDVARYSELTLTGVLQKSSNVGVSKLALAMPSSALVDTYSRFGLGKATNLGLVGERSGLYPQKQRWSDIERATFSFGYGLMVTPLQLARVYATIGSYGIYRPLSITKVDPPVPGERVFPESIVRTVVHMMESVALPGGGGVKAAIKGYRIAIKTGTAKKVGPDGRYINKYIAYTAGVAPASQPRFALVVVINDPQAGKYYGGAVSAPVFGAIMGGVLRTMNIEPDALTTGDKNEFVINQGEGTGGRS
Briefly: thermal shift (Protein Thermal Shift dye). It counts as binding. To be noted: 3 μM PBP3, 300 μM ligand, 25-95 °C at 1 °C/min; Tm increased.

Assay [2] addresses T1, PBP3. Briefly: biochemical. Further details: Thermal shift assay, Protein Thermal Shift dye, 3 uM E. coli PBP3, change in melting temperature. To be noted: read-out: Average DTm/°C. The method, then:
The thermal shift assay was carried out using the Protein Thermal Shift™ assay kit (Applied Biosystems). 3 μM of purified E. coli PBP3 was incubated with the β-lactam analogues at 300 μM concentration in a mixture containing the Protein Thermal Shift™ Dye. The samples were then heated in a StepOnePlus™ Real-Time PCR System from 25 to 95 °C at a rate of 1 °C min^−1. Tests were carried out in triplicate and the averages plotted as the negative first derivative vs. temperature. Reference wells, i.e. solutions consisting only of only PBP3 with dye, PBP3 only, and dye only, were used as controls. Melting temperature (Tm) values were determined with and without each compound, and the change in melting temperature (ΔTm) was obtained, Fig. 2. The thermal shift assay with PBP4 was carried out using the protocol described for PBP3, with the follow deriviatisation: 500 nM of purified Bacillus subtilis PBP4 was incubated with 50 μM of the β-lactam analogues. A thermal shift assay was used to investigate the binding of the cephalexin analogues to the therapeutic target, PBP, in vitro. This assay provides a fast and inexpensive method of detecting a ligand binding to a protein of interest. Briefly, the protein is gradually heated in the presence of a fluorescent dye that binds non-specifically to the hydrophobic surfaces. […] A change in the melting temperature (Tm) when the protein is heated in the presence of a ligand, indicates a protein–ligand interaction. […] The PBPs can be divided into two main categories: high molecular mass (HMM) and low molecular mass (LMM).[13] PBP3 was chosen as a representative HMM PBP, and PBP4 as a representative LMM PBP. Cephalexin (1) has been previously reported to show good binding affinities for both PBP3 and PBP4.[14] Penicillin (11) and cefpodoxime (12) were included as positive controls. A truncated version of the ftsI gene formed of residues W44-S588, encoding only the soluble domain, was amplified from E. coli BW25113. The resulting construct was inserted into the vector pBADnLIC2005,[40] introducing an N-terminal deca-histidine tag when expressed. The resulting vector was transformed into E. coli MC1061 for expression. Cultures for protein expression were grown in 1 L of Luria–Bertani (LB) broth at 37 °C on an orbital shaker. Expression was induced by addition of 0.01% L-arabinose during mid-log phase of growth. Cultures were further incubated for 16 h at 20 °C, then the cells were harvested by centrifugation. Cell pellets were resuspended in 50 mM KPi pH 7.8, 200 mM NaCl, 10 mM imidazole, 20% glycerol with 1 mM [compound left out] followed by sonication. The lysate was clarified by centrifugation before loading onto a HisTrap HF column (GE Healthcare). To remove any pre-bound ligands, refolding purification was performed by initially washing with the protein unfolding buffer [2 M guanidine HCl, 50 mM KPi (pH 7.8), 200 mM NaCl, 20% glycerol, and 20 mM imidazole] and then performing a gradient wash to the protein refolding buffer [50 mM KPi (pH 7.8), 200 mM NaCl, 20% glycerol, and 20 mM imidazole] before the elution of the protein using the elution buffer [50 mM KPi (pH 7.8), 200 mM NaCl, 20% glycerol, and 500 mM imidazole]. The eluted protein was buffer-exchanged to the buffer 50 mM KPi (pH 7.8), 200 mM NaCl using a HisTrap Desalting (GE Healthcare) column.

A further assay deals with T2, S. aureus.
T2 construct: NCTC 6571
The arrangement: species or system Staphylococcus aureus NCTC 6571; broth growth inhibition, OD600, fitted MIC from dose curve, TSB, 37 C. To be noted: 16 h; inhibitor. How it is done:
Stock solutions of each compound were prepared in 50% DMSO/water at ×100 the final concentration. In a 96-well plate, 2 μL of the test compounds were added to each well. Each plate included the positive control (750 μg mL^−1 chloramphenicol), the negative control (50% DMSO/water) and media only wells. To each test well was then added 198 μL of the required bacteria stock (OD 0.05). E. coli assays were carried out using LB broth, S. aureus were carried out using tryptic soy broth (TSB). Plates were incubated at 37 °C and the OD600 was measured (Epoch 2 Microplate Spectrophotometer, BioTek) every 30 min over a 17 h period. Tests were carried out in triplicate, the background absorbance was removed using reference wells, and the averages were determined. Dose curves were plotting using the OD600 after 16 h growth vs. compound concentration. MICs were defined as the minimum concentration of compound at which no significant growth was observed after 16 h incubation. MIC values were determined using GraphPad Prism (version 8.3.0). The activity of 1–12 was investigated with growth assays against Staphylococcus aureus (NCTC 6571). S. aureus is a virulent Gram-positive pathogen that can cause a wide range of infections in humans.[29,30] Each compound was tested at 400–6 μM concentrations, with lower concentrations tested as required.

The test system of another assay is T3, S. aureus (NCTC 6571).
T3 construct: NCTC 6571
Briefly: microbe, parasite or virus in culture. Further details: minimum bactericidal concentration 50 on agar plates. As to conditions: Staphylococcus aureus, NCTC6571; read-out: MBC50 S. aureus (NCTC 6571).

The test system of a further assay is T4, E. coli (BW25113).
T4 construct: BW25113
Briefly: microbe, parasite or virus in culture. The arrangement: minimum bactericidal concentration 50 on agar plates. To be noted: Escherichia coli, read-out: MBC50 E. coli (BW25113).

Values after ≈ are worked out from the molar mass of the structure shown.

In the case of `CC1=C(C(=O)O)N2C(=O)[C@@H](NC(=O)[C@H](NC(=O)CCCC(=O)O)c3ccccc3)[C@H]2SC1` [compound 7, (6R,7R)-7-[(2R)-2-(4-Carboxybutanamido)-2-phenylacetamido]-3-methyl-8-oxo-5-thia-1-azabicyclo[4.2.0]oct-2-ene-2-carboxylic acid], the ΔTm entry on PBP3 [1] is “all of the analogues tested caused an increase in the Tm with PBP3”. For the same compound, the ΔTm at 300 µM at PBP3 [2] stood at 3.6 °C. Further, the “MIC (S. aureus, best-fit)” value against S. aureus is 81.44 µM (≈ 37.6 µg/mL). The MBC in the assay on S. aureus (NCTC 6571) was 200 µM (≈ 92.3 µg/mL); in the assay on E. coli (BW25113), above 400 µM.

Source of the values: paper PMC9056950, “Synthesis and biochemical evaluation of cephalosporin analogues equipped with chemical tethers” (RSC Advances, 2020).
